According to US7615643B2 (SmithKline Beecham Corporation, priority 2006, dated 2009):

Molecular target: T1, PLK1 (Homo sapiens, UniProt P53350)
T1 construct: PLK kinase domain (amino acids 21-346 preceded by MKKGHHHHHHD); made in house; host or cells: baculovirus infected T. ni cells
Assay: Assay for inhibition of PLK1 (SPA kinase assay)
Assay type: biochemical
Conditions: 1 μM ATP, 2 nM PLK1 kinase domain, read-out: PLK1 pIC50 (converted)
Description: I. Assay for Inhibition of PLK1
A. Preparation of 6× N-terminal His-tagged PLK Kinase Domain
6× N-terminal His-tagged PLK kinase domain (amino acids 21-346 preceded by MKKGHHHHHHD) SEQ ID: No. 1. was prepared from baculovirus infected T. ni cells under polyhedrin promoter control. All procedures were performed at 4° C. Cells were lysed In 50 mM HEPES, 200 mM NaCl, 50 mM imidazole, 5% glycerol; pH 7.5. The homogenate was centrifuged at 14K rpm in a SLA-1500 rotor for 1 hr and the supernatant filtered through a 1.2 micron filter. The supernatant was loaded onto a Nickel chelating Sepharose (Amersham Pharmacia) column and washed with lysis buffer. Protein was eluted using 20%, 30% and 100% buffer B steps where buffer B was 50 mM HEPES, 200 mM NaCl, 300 mM imidazole, 5% glycerol; pH 7.5. Fractions containing PLK were determined by SDS-PAGE. Fractions containing PLK were diluted five-fold with 50 mM HEPES, 1 mM DTT, 5% glycerol; pH 7.5, then loaded on an SP Sepharose (Amersham Pharmacia) column. After washing the column with 50 mM HEPES, 1 mM DTT, 5% glycerol; pH 7.5, PLK was step eluted with 50 mM HEPES, 1 mM DTT, 500 mM NaCl; 5% glycerol; pH 7.5. PLK was concentrated using a 10 kDa molecular weight cutoff membrane and then loaded onto a Superdex 200 gel filtration (Amersham Pharmacia) column equilibrated in 25 mM HEPES, 1 mM DTT, 500 mM NaCl, 5% glycerol; pH 7.5. Fractions containing PLK were determined by SDS-PAGE. PLK was pooled, aliquoted and stored at −80° C. Samples were quality controlled using mass spectrometry, N-terminal sequencing and amino acid analysis.
B. Enzyme Activity +/− Inhibitors was Determined as Follows:
All measurements were obtained under conditions where signal production increased linearly with time and enzyme. Test compounds were added to white 384-well assay plates (0.1 μL for 10 μL and some 20 μL assays, 1 μL for some 20 μL assays) at variable known concentrations in 100% DMSO. DMSO (1-5% final, as appropriate) and EDTA (65 mM in reaction) were used as controls. Reaction Mix was prepared as follows at 22° C.: • 25 mM HEPES, pH 7.2 • 15 mM MgCl2 • 1 μM ATP • 0.05 μCi/well ^33P-γ ATP (10 Ci/mMol) • 1 μM substrate peptide (Biotin-Ahx-SFNDTLDFD) SEQ ID:No. 2. • 0.15 mg/mL BSA • 1 mM DTT • 2 nM PLK1 kinase domain (added last)
Reaction Mix (10 or 20 μL) was quickly added to each well immediately following addition of enzyme via automated liquid handlers and incubated 1-1.5 h at 22° C. The 20 μL enzymatic reactions were stopped with 50 μL of stop mix (50 mM EDTA, 4.0 mg/mL Streptavidin SPA beads in Standard Dulbecco's PBS (without Mg^2+ and Ca^2+), 50 μM ATP) per well. The 10 μL reactions were stopped with 10 μL of stop mix (50 mM EDTA, 3.0 mg/mL Streptavidin-coupled SPA imaging Beads (“LeadSeeker”) in Standard Dulbecco's PBS (without Mg^2+ and Ca^2+), 50 μM ATP) per well. Plates were sealed with clear plastic seals, spun at 500×g for 1 min or settled overnight, and counted in Packard TopCount for 30 seconds/well (regular SPA) or imaged using a Viewlux imager (LeadSeeker SPA). Signal above background (EDTA controls) was converted to percent Inhibition relative to that obtained in control (DMSO-only) wells.

T1 sequence (P53350 21-346): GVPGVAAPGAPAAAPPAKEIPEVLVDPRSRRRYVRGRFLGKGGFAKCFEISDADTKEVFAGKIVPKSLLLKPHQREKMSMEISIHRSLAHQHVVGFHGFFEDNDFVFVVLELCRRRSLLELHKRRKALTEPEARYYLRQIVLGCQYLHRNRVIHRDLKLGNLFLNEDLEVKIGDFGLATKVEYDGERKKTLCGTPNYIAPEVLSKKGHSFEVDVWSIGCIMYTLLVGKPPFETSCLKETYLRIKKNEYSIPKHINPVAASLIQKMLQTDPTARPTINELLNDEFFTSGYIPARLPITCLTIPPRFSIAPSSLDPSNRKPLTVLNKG

IC50, < 100 nM:
C[C@@H](Oc1cc(-n2cnc3ccccc32)sc1C(N)=O)c1cccc(OC2CCNCC2)c1Cl [Example 14, 5-(1H-Benzimidazol-1-yl)-3-({(1R)-1-[2-chloro-3-(4-piperidinyloxy)phenyl]ethyl}oxy)-2-thiophenecarboxamide]
C[C@@H](Oc1cc(-n2cnc3ccccc32)sc1C(N)=O)c1cccc(OCCN2CCOCC2)c1Cl [Example 15, 5-(1H-benzimidazol-1-yl)-3-{[(1R)-1-(2-chloro-3-{[2-(4-morpholinyl)ethyl]oxy}phenyl)ethyl]oxy}-2-thiophenecarboxamide]
C[C@@H](Oc1cc(-n2cnc3ccccc32)sc1C(N)=O)c1cccc(OCCN2CCNCC2)c1Cl [Example 16, 5-(1H-benzimidazol-1-yl)-3-{[(1R)-1-(2-chloro-3-{[2-(1-piperazinyl)ethyl]oxy}phenyl)ethyl]oxy}-2-thiophenecarboxamide]
C[C@@H](Oc1cc(-n2cnc3ccccc32)sc1C(N)=O)c1cccc(OCCN2CCN(C)CC2)c1Cl [Example 17, 5-(1H-benzimidazol-1-yl)-3-{[(1R)-1-(2-chloro-3-{[2-(4-methyl-1-piperazinyl)ethyl]oxy}phenyl)ethyl]ocy}-2-thiophenecarboxamide]
C[C@@H](Oc1cc(-n2cnc3cc(-c4ccc(NC5CCN(C)CC5)nc4)ccc32)sc1C(N)=O)c1cccc(OC2CCN(C)CC2)c1Cl [Example 18, 3-[((1R)-1-{2-chloro-3-[(1-methyl-4-piperidinyl)oxy]phenyl}ethyl)oxy]-5-(5-{6-[(1-methyl-4-piperidinyl)amino]-3-pyridinyl}-1H-benzimidazol-1-yl)-2-thiophenecarboxamide]
CCN1CCC(Oc2cccc([C@@H](C)Oc3cc(-n4cnc5cc(Cl)ccc54)sc3C(N)=O)c2Cl)CC1 [Example 19, 5-(5-Chloro-1H-benzimidazol-1-yl)-3-[((1R)-1-{2-chloro-3-[(1-ethyl-4-piperidinyl)oxy]phenyl}ethyl)oxy]-2-thiophenecarboxamide]
C[C@@H](Oc1cc(-n2cnc3cc(Cl)ccc32)sc1C(N)=O)c1cccc(OC2CCN(CCO)CC2)c1Cl [Example 20, 5-(5-Chloro-1H-benzimidazol-1-yl)-3-{[(1R)-1-(2-chloro-3-{[1-(2-hydroxyethyl)-4-piperidinyl]oxy}phenyl)ethyl]oxy}-2-thiophenecarboxamide]
C[C@@H](Oc1cc(-n2cnc3cc(Cl)ccc32)sc1C(N)=O)c1cccc(OC2CCN(CCF)CC2)c1Cl [Example 21, 5-(5-Chloro-1H-benzimidazol-1-yl)-3-{[(1R)-1-(2-chloro-3-{[1-(2-fluoroethyl)-4-piperidinyl]oxy}phenyl)ethyl]oxy}-2-thiophenecarboxamide]
C[C@@H](Oc1cc(-n2cnc3cc(Cl)ccc32)sc1C(N)=O)c1cccc(OC2CCN(CCN)CC2)c1Cl [Example 22, 3-{[(1R)-1-(3-{[1-(2-aminoethyl)-4-piperidinyl]oxy}-2-chlorophenyl)ethyl]oxy}-5-(5-chloro-1H-benzimidazol-1-yl)-2-thiophenecarboxamide]
C[C@@H](Oc1cc(-n2cnc3cc(Cl)ccc32)sc1C(N)=O)c1cccc(OC2CCN(CCS(C)(=O)=O)CC2)c1Cl [Example 23, 5-(5-Chloro-1H-benzimidazol-1-yl)-3-({(1R)-1-[2-chloro-3-({1-[2-(methylsulfonyl)ethyl]-4-piperidinyl}oxy)phenyl]ethyl}oxy)-2-thiophenecarboxamide]
CC(C)N1CCC(Oc2cccc([C@@H](C)Oc3cc(-n4cnc5cc(Cl)ccc54)sc3C(N)=O)c2Cl)CC1 [Example 24, 5-(5-Chloro-1H-benzimidazol-1-yl)-3-{[(1R)-1-(2-chloro-3-{[1-(1-methylethyl)-4-piperidinyl]oxy}phenyl)ethyl]oxy}-2-thiophenecarboxamide]
C[C@@H](Oc1cc(-n2cnc3cc(-c4cnn(C)c4)ccc32)sc1C(N)=O)c1cccc(OCCN2CCOCC2)c1Cl [Example 25, 3-{[(1R)-1-(2-chloro-3-{[2-(4-morpholinyl)ethyl]oxy}phenyl)ethyl]oxy}-5-[5-(1-methyl-1H-pyrazol-4-yl)-1H-benzimidazol-1-yl]-2-thiophenecarboxamide]
C[C@@H](Oc1cc(-n2cnc3cc(Cl)ccc32)sc1C(N)=O)c1cccc(OCCN2CCOCC2)c1Cl [Example 26, 5-(5-Chloro-1H-benzimidazol-1-yl)-3-{[(1R)-1-(2-chloro-3-{[2-(4-morpholinyl)ethyl]oxy}phenyl)ethyl]oxy}-2-thiophenecarboxamide]
C[C@@H](Oc1cc(-n2cnc3cc(Cl)ccc32)sc1C(N)=O)c1cccc(OC[C@H]2CNCCO2)c1Cl [Example 27, 5-(5-Chloro-1H-benzimidazol-1-yl)-3-{[(1R)-1-(2-chloro-3-{[(2R)-2-morpholinylmethyl]oxy}phenyl)ethyl]oxy}-2-thiophenecarboxamide]
C[C@@H](Oc1cc(-n2cnc3cc(Cl)ccc32)sc1C(N)=O)c1cccc(OC[C@@H]2CNCCO2)c1Cl [Example 28, 5-(5-Chloro-1H-benzimidazol-1-yl)-3-{[(1R)-1-(2-chloro-3-{[(2S)-2-morpholinylmethyl]oxy}phenyl)ethyl]oxy}-2-thiophenecarboxamide]
C[C@@H](Oc1cc(-n2cnc3cc(-c4cnn(C)c4)ccc32)sc1C(N)=O)c1cccc(OC2CCN(CCF)CC2)c1Cl [Example 29, 3-{[(1R)-1-(2-Chloro-3-{[1-(2-fluoroethyl)-4-piperidinyl]oxy}phenyl)ethyl]oxy}-5-[5-(1-methyl-1H-pyrazol-4-yl)-1H-benzimidazol-1-yl]-2-thiophenecarboxamide]
C[C@@H](Oc1cc(-n2cnc3cc(-c4cnn(C)c4)ccc32)sc1C(N)=O)c1cccc(OC2CCN(CCC(F)(F)F)CC2)c1Cl [Example 30, 3-{[(1R)-1-(2-chloro-3-{[1-(3,3,3-trifluoropropyl)-4-piperidinyl]oxy}phenyl)ethyl]oxy}-5-[5-(1-methyl-1H-pyrazol-4-yl)-1H-benzimidazol-1-yl]-2-thiopenecarboxamide]
C[C@@H](Oc1cc(-n2cnc3cc(-c4cnn(C)c4)ccc32)sc1C(N)=O)c1cccc(OC2CCN(CCS(C)(=O)=O)CC2)c1Cl [Example 31, 3-({(1R)-1-[2-Chloro-3-({1-[2-(methylsulfonyl)ethyl]-4-piperldinyl}oxy)phenyl]ethyl}oxy)-5-[5-(1-methyl-1H-pyrazol-4-yl)-1H-benzimidazol-1-yl]-2-thiophenecarboxamide]
C[C@@H](Oc1cc(-n2cnc3cc(Cl)ccc32)sc1C(N)=O)c1ccc(F)c(OC2CCN(C)CC2)c1Cl [Example 32, 5-(5-Chloro-1H-benzimidazol-1-yl)-3-[((1R)-1-{2-chloro-4-fluoro-3-[(1-methyl-4-piperidinyl)oxy]phenyl}ethyl)oxy]-2-thiophenecarboxamide]
C[C@@H](Oc1cc(-n2cnc3cc(-c4cnn(C)c4)ccc32)sc1C(N)=O)c1ccc(F)c(OC2CCNCC2)c1Cl [Example 33, 3-({(1R)-1-[2-Chloro-4-fluoro-3-(4-piperidinyloxy)phenyl]ethyl}oxy)-5-[5-(1-methyl-1H-pyrazol-4-yl)-1H-benzimidazol-1-yl]-2-thiophenecarboxamide]
